Values after ≈ are worked out from the molar mass of the structure shown.
How the values were obtained:
Staph. aureus = test: In vitro antibacterial activity, two-fold serial dilution in Brain-Heart Infusion broth (MIC); assay type: cell-based; conditions: Staphylococcus aureus, anaerobic, overnight
Method: (§1) The broth is inoculated with bacteria, and with the test compound of formula (I), and then it is incubated overnight under anaerobic conditions. On the next day, the test is read visually. The minimum inhibitory concentration (MIC) of test compound is the lowest concentration which prevents turbidity, i.e., which prevents growth of the microoganism.

Strep. pyogenes = test: as above; assay type: cell-based; conditions: Streptococcus pyogenes, anaerobic, overnight
Method: as §1

E. Coli = test: as above; assay type: cell-based; conditions: Escherichia coli, anaerobic, overnight
Method: as §1

Pasteurella multocida = test: as above; assay type: cell-based; conditions: anaerobic, overnight
Method: as §1

Salmonella cholerasuis [1] = test: as above; assay type: cell-based; conditions: anaerobic, overnight
Method: as §1

Salmonella cholerasuis [2] = test: In vivo protection of mice against a lethal challenge of Salmonella cholerasuis; conditions: at 25 mg./Kg., multiple dosing
Method: The compounds of formula (I) also show antibacterial activity in vivo. In determining such activity, the test compound is administered to mice which have been infected by intraperitoneal injection of a lethal inoculum of pathogenic bacteria. The test compound is administered using a multiple dosing regimen, and using either the oral (PO) or the subcutaneous (SC) route. The inoculum of bacteria varies from one to about ten times the amount needed to kill 100% of the mice, under the conditions of the test. At the end of the test, the activity of a compound is assessed by counting the number of survivors among the treated animals. Results are also given in Table I, wherein the ability of the compound to protect mice against a lethal challenge of Salmonella cholerasuis is presented.

Cc1ccc(S(=O)(=O)NN=Cc2c[n+]([O-])c3ccccc3[n+]2[O-])cc1 [N → O, H, H, 4-CH3 C6 H4, 1,4-Dioxoquinoxaline-2-carboxaldehyde p-Toluenesulfonylhydrazone]
MIC (Staph. aureus): 25 µg/mL (≈ 69.8 µM)
MIC (Strep. pyogenes): 12.5 µg/mL (≈ 34.9 µM)
MIC (E. Coli): 1.56 µg/mL (≈ 4.35 µM)
MIC (Pasteurella multocida): 3.12 µg/mL (≈ 8.72 µM)
MIC (Salmonella cholerasuis [1]): 6.25 µg/mL (≈ 17.4 µM)
% Survivors vs. Sal. Cholarasuis, PO (Salmonella cholerasuis [2]): 30%
% Survivors vs. Sal. Cholarasuis, SC (Salmonella cholerasuis [2]): 100%

O=S(=O)(NN=Cc1c[n+]([O-])c2ccccc2[n+]1[O-])c1ccc(F)cc1 [N → O, H, H, 4-FC6 H4]
MIC (Staph. aureus): 25 µg/mL (≈ 69 µM)
MIC (Strep. pyogenes): 12.5 µg/mL (≈ 34.5 µM)
MIC (E. Coli): 3.12 µg/mL (≈ 8.62 µM)
MIC (Pasteurella multocida): 3.12 µg/mL (≈ 8.62 µM)
MIC (Salmonella cholerasuis [1]): 6.25 µg/mL (≈ 17.2 µM)
% Survivors vs. Sal. Cholarasuis, PO (Salmonella cholerasuis [2]): 10%
% Survivors vs. Sal. Cholarasuis, SC (Salmonella cholerasuis [2]): 30%

O=S(=O)(NN=Cc1c[n+]([O-])c2ccccc2[n+]1[O-])c1ccccc1 [N → O, H, H, C6 H5, 1,4-Dioxoquinoxaline-2-carboxaldehyde Benzenesulfonylhydrazone]
MIC (Staph. aureus): 100 µg/mL (≈ 290 µM)
MIC (Strep. pyogenes): 25 µg/mL (≈ 72.6 µM)
MIC (E. Coli): 12.5 µg/mL (≈ 36.3 µM)
MIC (Pasteurella multocida): 12.5 µg/mL (≈ 36.3 µM)
MIC (Salmonella cholerasuis [1]): 12.5 µg/mL (≈ 36.3 µM)

CS(=O)(=O)NN=Cc1c[n+]([O-])c2ccccc2[n+]1[O-] [N → O, H, H, CH3]
MIC (Staph. aureus): 25 µg/mL (≈ 88.6 µM)
MIC (Strep. pyogenes): 12.5 µg/mL (≈ 44.3 µM)
MIC (E. Coli): 3.12 µg/mL (≈ 11.1 µM)
MIC (Pasteurella multocida): 12.5 µg/mL (≈ 44.3 µM)
MIC (Salmonella cholerasuis [1]): 6.25 µg/mL (≈ 22.1 µM)
% Survivors vs. Sal. Cholarasuis, PO (Salmonella cholerasuis [2]): 10%
% Survivors vs. Sal. Cholarasuis, SC (Salmonella cholerasuis [2]): 60%

Cc1ccc(S(=O)(=O)NN=Cc2c[n+]([O-])c3ccccc3n2)cc1 [N, H, H, 4-CH3 C6 H4, 4-Oxoquinoxaline-2-carboxaldehyde p-Toluenesulfonylhydrazone]
MIC (Staph. aureus): 25 µg/mL (≈ 73 µM)
MIC (Strep. pyogenes): 12.5 µg/mL (≈ 36.5 µM)
MIC (E. Coli): 3.12 µg/mL (≈ 9.13 µM)
MIC (Pasteurella multocida): 3.12 µg/mL (≈ 9.13 µM)
MIC (Salmonella cholerasuis [1]): 3.12 µg/mL (≈ 9.13 µM)
% Survivors vs. Sal. Cholarasuis, PO (Salmonella cholerasuis [2]): 60%
% Survivors vs. Sal. Cholarasuis, SC (Salmonella cholerasuis [2]): 100%

COc1ccc(S(=O)(=O)NN=Cc2c[n+]([O-])c3ccccc3n2)cc1 [N, H, H, 4-CH3 OC6 H4, 4-Oxoquinoxaline-2-carboxaldehyde p-Methoxybenzenesulfonylhydrazone]
MIC (Staph. aureus): 12.5 µg/mL (≈ 34.9 µM)
MIC (Strep. pyogenes): 6.25 µg/mL (≈ 17.4 µM)
MIC (E. Coli): 3.12 µg/mL (≈ 8.72 µM)
MIC (Pasteurella multocida): 1.56 µg/mL (≈ 4.35 µM)
MIC (Salmonella cholerasuis [1]): 6.25 µg/mL (≈ 17.4 µM)
